Results taken from ChEMBL document CHEMBL4402589, “Discovery of a Potent and Selective NF-κB-Inducing Kinase (NIK) Inhibitor That Has Anti-inflammatory Effects in Vitro and in Vivo” (J Med Chem, 2020).
Active and inactive are the calls of the source. The rule behind the calls is not given here.

Tests used:
[1] = molecular target: T1, Mitogen-activated protein kinase kinase kinase 14 (Homo sapiens, UniProt Q99558); experiment: Inhibition of recombinant human N-terminal GST-tagged NIK (318 to 947 residues) expressed in baculovirus infected Sf9 cells using ultrapure ATP as substrate measured after 1 hr by ADP-glo assay
[2] = Oral bioavailability in ICR mouse; type: ADME, organism-based; details: in vivo
[3] = Stability of the compound in pH 1 aqueous solution; type: physicochemical; details: buffer
[4] = molecular target: Mitogen-activated protein kinase kinase kinase 14 (Mus musculus) (UniProt Q9WUL6); experiment: Inhibition of NIK in NIK adenovirus infected C57BL/6 mouse primary hepatocytes assessed as reduction in NOS2 mRNA expression measured after 16 hrs by SYBR staining based RT-qPCR analysis
[5] = Half life in ICR mouse at 15 mg/kg, po by LC-MS/MS analysis; type: ADME, organism-based; details: in vivo
[6] = Clearance in ICR mouse at 5 mg/kg, iv by LC-MS/MS analysis; type: ADME, organism-based; details: in vivo
Mus musculus [7] = experiment: (§1) Antiinflammatory activity in CCl4-induced C57BL/6 mouse model of liver injury assessed as reduction in CXCL5 mRNA expression in liver at 40 mg/kg, po administered 30 mins prior to CCl4 addition followed by compound redosing at 3 hrs interval for 9 hrs and measured 12 hrs […] by SYBR staining based RT-qPCR analysis; type: functional, organism-based
[8] = AUC (0 to t) in ICR mouse at 15 mg/kg, po by LC-MS/MS analysis; type: ADME, organism-based; details: in vivo
[9] = molecular target: Mitogen-activated protein kinase kinase kinase 14 (Mus musculus) (UniProt Q9WUL6); experiment: Inhibition of NIK in NIK adenovirus infected C57BL/6 mouse primary hepatocytes assessed as reduction in CCL2 mRNA expression measured after 16 hrs by SYBR staining based RT-qPCR analysis
[10] = Half life in ICR mouse at 5 mg/kg, iv by LC-MS/MS analysis; type: ADME, organism-based; details: in vivo
[11] = molecular target: Mitogen-activated protein kinase kinase kinase 14 (Mus musculus) (UniProt Q9WUL6); experiment: Inhibition of NIK in NIK adenovirus infected C57BL/6 mouse primary hepatocytes assessed as reduction in CXCL5 mRNA expression measured after 16 hrs by SYBR staining based RT-qPCR analysis
Mus musculus [12] = experiment: as §1, with “immune cell infiltration” for “CXCL5 mRNA expression”, “F4/80/DAPI” for “SYBR”, “immunofluorescence assay” for “RT-qPCR analysis”; type: functional, organism-based
[13] = Apparent volume of distribution in ICR mouse at 5 mg/kg, iv by LC-MS/MS analysis; type: ADME, organism-based; details: in vivo, read-out: Vz
[14] = molecular target: Mitogen-activated protein kinase kinase kinase 14 (Mus musculus) (UniProt Q9WUL6); experiment: Inhibition of NIK in NIK adenovirus infected C57BL/6 mouse primary hepatocytes assessed as reduction in TNFalpha mRNA expression measured after 16 hrs by SYBR staining based RT-qPCR analysis
[15] = Cmax in ICR mouse at 15 mg/kg, po by LC-MS/MS analysis; type: ADME, organism-based; set-up: dose 15 mg/kg, route oral; details: in vivo
[16] = Tmax in ICR mouse at 5 mg/kg, iv by LC-MS/MS analysis; type: ADME, organism-based; details: in vivo
[17] = molecular target: Mitogen-activated protein kinase kinase kinase 14 (Mus musculus) (UniProt Q9WUL6); experiment: Inhibition of NIK in NIK/p100 adenoviruses infected C57BL/6 mouse primary hepatocytes assessed as suppression of NIK-mediated proteolysis of p100 to p52 by measuring reduction in p52 level measured after 16 hrs by Western blot analysis
Mus musculus [18] = experiment: Antiinflammatory activity in CCl4-induced C57BL/6 mouse model of liver injury assessed as reduction in serum ALT level at 40 mg/kg, po administered 30 mins prior to CCl4 addition followed by compound redosing at 3 hrs interval for 9 hrs and measured 12 hrs […]; type: functional, organism-based
Mus musculus [19] = experiment: as §1, with “CCL5” for “CXCL5”; type: functional, organism-based
[20] = AUC (0 to t) in ICR mouse at 5 mg/kg, iv by LC-MS/MS analysis; type: ADME, organism-based; details: in vivo
Hepatocyte = experiment: Down regulation of NIK expression in NIK/p100 adenoviruses infected C57BL/6 mouse primary hepatocytes at 1 to 10 uM measured after 16 hrs by Western blot analysis; type: functional, cell-based
[21] = Oral bioavailability in ICR mouse at 15 mg/kg by LC-MS/MS analysis; type: ADME, organism-based; details: in vivo
Mus musculus [22] = experiment: as §1, with “CCL2” for “CXCL5”; type: functional, organism-based
[23] = Tmax in ICR mouse at 15 mg/kg, po by LC-MS/MS analysis; type: ADME, organism-based; details: in vivo
[24] = molecular target: Mitogen-activated protein kinase kinase kinase 14 (Mus musculus) (UniProt Q9WUL6); experiment: Inhibition of NIK in NIK adenovirus infected C57BL/6 mouse primary hepatocytes assessed as reduction in CCL5 mRNA expression measured after 16 hrs by SYBR staining based RT-qPCR analysis
[25] = Cmax in ICR mouse at 5 mg/kg, iv by LC-MS/MS analysis; type: ADME, organism-based; set-up: dose 5 mg/kg, route intravenous; details: in vivo
Mus musculus [26] = experiment: as §1, with “TNFalpha” for “CXCL5”; type: functional, organism-based
[27] = molecular target: T1, Mitogen-activated protein kinase kinase kinase 14; experiment: Binding affinity to wild-type human partial length NIK (L318 to P947 residues) expressed in mammalian expression system by Kinomescan method
Mus musculus [28] = experiment: as §1, with “NOS2” for “CXCL5”; type: functional, organism-based

T1 sequence (Q99558 whole entry, the tested form may be a part): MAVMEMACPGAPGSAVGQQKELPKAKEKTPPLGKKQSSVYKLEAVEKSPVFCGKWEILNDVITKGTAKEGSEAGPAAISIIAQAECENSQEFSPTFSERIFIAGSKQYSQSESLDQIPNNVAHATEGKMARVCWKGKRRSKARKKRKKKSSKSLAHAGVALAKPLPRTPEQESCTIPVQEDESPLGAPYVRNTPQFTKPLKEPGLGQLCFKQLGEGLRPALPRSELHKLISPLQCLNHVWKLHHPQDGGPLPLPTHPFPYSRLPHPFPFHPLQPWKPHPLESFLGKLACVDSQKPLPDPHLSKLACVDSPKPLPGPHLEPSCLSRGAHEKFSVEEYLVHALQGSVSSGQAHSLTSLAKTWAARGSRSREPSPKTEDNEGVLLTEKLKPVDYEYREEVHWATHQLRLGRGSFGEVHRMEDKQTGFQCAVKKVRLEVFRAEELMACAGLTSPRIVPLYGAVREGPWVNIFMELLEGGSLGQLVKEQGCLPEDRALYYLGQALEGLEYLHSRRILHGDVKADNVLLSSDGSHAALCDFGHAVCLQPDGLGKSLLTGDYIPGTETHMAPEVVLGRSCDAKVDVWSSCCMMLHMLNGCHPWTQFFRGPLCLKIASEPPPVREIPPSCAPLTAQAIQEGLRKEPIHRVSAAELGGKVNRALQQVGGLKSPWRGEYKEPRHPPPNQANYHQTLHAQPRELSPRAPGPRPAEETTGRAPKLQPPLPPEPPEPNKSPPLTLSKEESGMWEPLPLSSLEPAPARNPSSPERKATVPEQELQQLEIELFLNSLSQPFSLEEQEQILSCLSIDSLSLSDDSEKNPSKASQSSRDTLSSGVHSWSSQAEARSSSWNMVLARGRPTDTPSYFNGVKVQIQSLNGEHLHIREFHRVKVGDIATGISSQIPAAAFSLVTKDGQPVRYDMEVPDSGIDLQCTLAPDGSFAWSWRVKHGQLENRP
Mitogen-activated protein kinase kinase kinase 14 (Mus musculus), sequence (Q9WUL6 whole entry): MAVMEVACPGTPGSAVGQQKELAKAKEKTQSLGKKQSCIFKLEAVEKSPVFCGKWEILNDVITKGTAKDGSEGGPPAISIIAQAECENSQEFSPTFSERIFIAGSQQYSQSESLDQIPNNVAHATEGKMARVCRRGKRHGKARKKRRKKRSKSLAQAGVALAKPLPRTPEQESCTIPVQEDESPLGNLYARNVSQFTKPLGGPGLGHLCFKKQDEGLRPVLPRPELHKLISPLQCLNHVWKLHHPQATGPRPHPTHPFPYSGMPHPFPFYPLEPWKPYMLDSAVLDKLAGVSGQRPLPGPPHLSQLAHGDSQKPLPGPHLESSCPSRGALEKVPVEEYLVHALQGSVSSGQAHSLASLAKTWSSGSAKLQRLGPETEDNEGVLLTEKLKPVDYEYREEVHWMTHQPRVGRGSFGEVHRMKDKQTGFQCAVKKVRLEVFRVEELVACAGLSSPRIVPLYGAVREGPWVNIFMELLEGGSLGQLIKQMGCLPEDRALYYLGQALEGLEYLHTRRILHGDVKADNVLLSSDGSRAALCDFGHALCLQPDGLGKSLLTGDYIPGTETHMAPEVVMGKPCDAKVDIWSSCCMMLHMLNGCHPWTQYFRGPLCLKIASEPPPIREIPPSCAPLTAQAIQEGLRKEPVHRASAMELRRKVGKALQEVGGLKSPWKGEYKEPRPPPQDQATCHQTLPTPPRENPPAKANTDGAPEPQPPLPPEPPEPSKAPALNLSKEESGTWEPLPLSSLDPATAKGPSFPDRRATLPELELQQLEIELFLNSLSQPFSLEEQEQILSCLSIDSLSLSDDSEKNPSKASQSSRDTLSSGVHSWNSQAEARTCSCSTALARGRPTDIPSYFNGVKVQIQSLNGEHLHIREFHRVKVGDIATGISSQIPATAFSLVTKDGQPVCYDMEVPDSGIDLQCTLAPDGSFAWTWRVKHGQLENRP

For `CC(O)(C#Cc1cccc(-c2c[nH]c3cnc(N)nc23)c1)c1nccs1` (stereo not drawn), which IC50 [1] is on record?
The IC50 was 218 nM.

Which IC50 [1] does the source give for `C[C@](O)(C#Cc1ccc(F)c(-c2c[nH]c3cnc(N)nc23)c1)c1nccs1` here?
Its IC50 is 2230 nM.

Which IC50 [1] does the source give for `CC(O)(C#Cc1cc(-n2ccc3cnc(N)nc32)c(F)cc1F)c1nccs1` (stereo not drawn) here?
Its IC50 is 641 nM.

For `CN(C)CCOc1ccc(-n2ccc3cnc(N)nc32)cc1C#CC(C)(O)c1nccs1` (stereo not drawn), which IC50 [1] is on record?
Its IC50 is over 10000 nM.

For `CC(O)(C#Cc1cccc(-c2c[nH]c3cnc(N)nc23)c1F)c1nccs1` (stereo not drawn), which IC50 [1] is on record?
The IC50 was 10900 nM.

With `Nc1ncc2ccn(-c3ccnc(C#CC4(O)CCCC4)c3)c2n1` as the molecule, how does the IC50 [1] read?
Its IC50 is 234 nM.

For `COc1ccc(-n2ccc3cnc(N)nc32)cc1C#CC(C)(O)c1nccs1` (stereo not drawn), which IC50 [1] is on record?
Its IC50 is 1750 nM.

For `CC(O)(C#Cc1ccc(F)c(-n2ccc3cnc(N)nc32)c1)c1nccs1` (stereo not drawn), which IC50 [1] is on record?
The IC50 was 215 nM.

Which IC50 [1] does the source give for `CNc1ccc(-n2ccc3cnc(N)nc32)cc1C#CC(C)(O)c1nccs1` (stereo not drawn) here?
The IC50 was over 10000 nM.

Which IC50 [1] does the source give for `Nc1ncc2ccn(-c3ccnc(C#CC4(O)CCCCC4)c3)c2n1` here?
Its IC50 is 1570 nM.

Which IC50 [1] does the source give for `CN(C)C(=O)C(C)(O)C#Cc1cccc(-c2c[nH]c3cnc(N)nc23)c1` (stereo not drawn) here?
The IC50 was over 10000 nM.

Which IC50 [1] does the source give for `Nc1ncc2ccn(-c3ccnc(C#CC4(O)CCCCCC4)c3)c2n1` here?
The IC50 was 748 nM.

For `Nc1ncc2[nH]cc(-c3cccc(C#CC(O)c4nccs4)c3)c2n1` (stereo not drawn), which IC50 [1] is on record?
The IC50 was 6380 nM.

With `COCCOc1ccc(-n2ccc3cnc(N)nc32)cc1C#CC(C)(O)c1nccs1` (stereo not drawn) as the molecule, how does the IC50 [1] read?
Its IC50 is 25800 nM.

For `Cc1[nH]c2cnc(N)nc2c1-c1cccc(C#CC(C)(O)c2nccs2)c1` (stereo not drawn), which IC50 [1] is on record?
Its IC50 is 2200 nM.

For `Cc1cc(C(C)(O)C#Cc2cccc(-c3c[nH]c4cnc(N)nc34)c2)no1` (stereo not drawn), which IC50 [1] is on record?
The IC50 was 290 nM.

For `COc1nc(N)nc2c1ccn2-c1cccc(C#CC(C)(O)c2nccs2)c1` (stereo not drawn), which IC50 [1] is on record?
Its IC50 is 2480 nM.

For `COc1ccc(C#CC(C)(O)c2nccs2)cc1-c1c[nH]c2cnc(N)nc12` (stereo not drawn), which IC50 [1] is on record?
The IC50 was 120 nM.

Which IC50 [1] does the source give for `CC(O)(C#Cc1cc(Cl)cc(-c2c[nH]c3cnc(N)nc23)c1)c1nccs1` (stereo not drawn) here?
Its IC50 is over 10000 nM.

For `CN1CCC(O)(C#Cc2ccc(F)c(-c3c[nH]c4cnc(N)nc34)c2)C1=O` (stereo not drawn), which bioavailability [2] is on record?
The bioavailability was 7%.

And the Stability [3]?
The Stability was “Stable”.

What about the IC50 [1] of the same molecule?
Its IC50 is 5.9 nM.

With `COc1ccc(C#CC(C)(O)c2nccs2)cc1-n1ccc2cnc(N)nc21` (stereo not drawn) as the molecule, how does the IC50 [1] read?
The IC50 was 216 nM.

Which inhibition [4] does the source give for `C[C@@](O)(C#Cc1ccc(F)c(-c2c[nH]c3cnc(N)nc23)c1)c1nccs1` here?
Its inhibition is “Dose-dependent effect”.

And the half-life [5]?
Its half-life is 12 h.

What about the clearance [6] of the same molecule?
The clearance was 92.4 mL/min/kg.

What about the Activity (Mus musculus [7]) of the same molecule?
Its Activity is “Active”.

What about the AUC(0-t) [8] of the same molecule?
The AUC(0-t) was 348 ng·h/mL.

And the inhibition [9]?
The inhibition was “Dose-dependent effect”.

What about the half-life [10] of the same molecule?
The half-life was 3.28 h.

And the inhibition [11]?
The inhibition was “Dose-dependent effect”.

What about the Activity (Mus musculus [12]) of the same molecule?
The Activity was “Active”.

What about the Vd [13] of the same molecule?
The Vd was 26 L/kg.

What about the Stability [3] of the same molecule?
Its Stability is “Stable”.

And the inhibition [14]?
The inhibition was “Dose-dependent effect”.

What about the Cmax [15] of the same molecule?
The Cmax was 510 ng/mL.

And the IC50 [1]?
The IC50 was 9.1 nM.

And the Tmax [16]?
The Tmax was 4.8 min.

What about the inhibition [17] of the same molecule?
The inhibition was “Dose-dependent effect”.

And the Activity (Mus musculus [18])?
Its Activity is “Active”.

And the Activity (Mus musculus [19])?
The Activity was “Active”.

And the AUC(0-t) [20]?
The AUC(0-t) was 891 ng·h/mL.

What about the Activity (Hepatocyte) of the same molecule?
Its Activity is “inactive”.

What about the bioavailability [21] of the same molecule?
The bioavailability was 13%.

And the Activity (Mus musculus [22])?
The Activity was “Active”.

What about the Tmax [23] of the same molecule?
Its Tmax is 0.3 h.

What about the inhibition [24] of the same molecule?
The inhibition was “Dose-dependent effect”.

What about the Cmax [25] of the same molecule?
The Cmax was 3040 ng/mL.

And the Activity (Mus musculus [26])?
Its Activity is “Active”.

And the Kd [27]?
Its Kd is 4.9 nM.

And the Activity (Mus musculus [28])?
Its Activity is “Active”.

For `COc1cc(C#CC(C)(O)c2nccs2)cc(-c2c[nH]c3cnc(N)nc23)c1` (stereo not drawn), which IC50 [1] is on record?
The IC50 was 290 nM.

With `CN1CCC(O)(C#Cc2cc(-n3ccc4cnc(N)nc43)ccn2)C1=O` (stereo not drawn) as the molecule, how does the bioavailability [2] read?
Its bioavailability is under 1%.

What about the IC50 [1] of the same molecule?
Its IC50 is 26.1 nM.

Which IC50 [1] does the source give for `CN1CCCC(O)(C#Cc2cc(-n3ccc4cnc(N)nc43)ccn2)C1=O` (stereo not drawn) here?
Its IC50 is 25.7 nM.

With `CC(O)(C#Cc1ccc(-n2ccc3cnc(N)nc32)cc1)c1nccs1` (stereo not drawn) as the molecule, how does the IC50 [1] read?
The IC50 was 3840 nM.

With `Nc1ncc2ccn(-c3ccnc(C#CC4(O)CCNCC4)c3)c2n1` as the molecule, how does the IC50 [1] read?
The IC50 was over 10000 nM.

With `CC(O)(C#Cc1cc(C#N)cc(-n2ccc3cnc(N)nc32)c1)c1nccs1` (stereo not drawn) as the molecule, how does the IC50 [1] read?
Its IC50 is 2060 nM.
